The values below are quoted from earlier work in EP0388817A2, “Use of mixed micelles and mixed micelle solutions of immunomodulators” (F. Hoffmann-La Roche AG, priority 1989, dated 1990).

A value given as a limit tells only on which side of the number the result lay.

For this series the following is noted: octanol/water.

Consider Vitamin A, for which the “Verteilungskoeffizient in Octanol/Wasser” value is reported as > 10^6.

With Vitamin E, the “Verteilungskoeffizient in Octanol/Wasser” value is > 10^6.

For the substance Vitamin K, the “Verteilungskoeffizient in Octanol/Wasser” value was > 10^6.
